Measured values published in ChEMBL document CHEMBL5532637, “Antimicrobial activity of natural and semi-synthetic carbazole alkaloids” (Eur J Med Chem, 2023).
≈ marks a conversion by molar mass, not a printed value.

Columns and labels:
[1] = system: Staphylococcus aureus; assay: Antibacterial activity against methicillin-resistant Staphylococcus aureus clinical isolate assessed as inhibition of bacterial growth incubated for 24 hrs by broth dilution assay; format: functional
[2] = system: Staphylococcus aureus; assay: Antibacterial activity against Staphylococcus aureus ATCC 25923 assessed as inhibition of bacterial growth incubated for 24 hrs by broth dilution assay; format: functional

`CCn1c2ccccc2c2c(Cl)c(N/N=C(/C(C)=O)N3CCN(CCO)CC3)ccc21` was tested. Which MIC [1] did it give?
Its MIC is 1.56 µg/mL (≈ 3.53 µM).

And the MIC [2]?
The MIC was 3.12 µg/mL (≈ 7.07 µM).
